From US8431395B2, “Pluripotent cells from rat and other species” (The University Court of the University of Edinburgh, priority 2006, dated 2013)

How the values were obtained:
[1] = system: mouse ES cells; test: Culture of pluripotent (ES) cells with inhibitors to promote self renewal; type: cell-based
Description: Mix DMEM/F12-N2 medium with Neurobasal/B27 medium at the ration of 1:1. The media was used to dilute all compounds and grow the cells.

[2] = system: GSK3; details: cited from earlier work
[3] = system: 3i rat cells; test: Maintenance of undifferentiated rat 3i cells under altered culture conditions; type: cell-based
Description: We investigated the effect of altering the culture conditions on maintenance of the undifferentiated state. […] LIF is not included in culture medium, consistent with the sufficiency of 3i for mouse ES cells. Rat cells transferred from 3i to medium supplemented with serum and LIF or BMP and LIF differentiated into various morphologies and lost expression of Oct4 and Nanog (FIG. 13a). These observations indicate that the 3i rat cells have reduced responsiveness to gp130/Stat3 signalling compared with mouse ES cells^20, 21. This may be a significant contributory factor to previous failures to derive rat ES cells.
Cells cultured without inhibitors differentiated into various morphologies (FIG. 13b). […] These findings are consistent with the hypothesis that blockade of FGF/Erk signaling is the critical requirement to sustain the naïve pluripotent state (Ying et al., submitted).
Recently the derivation of cell lines from post-implantation egg cylinder stage epiblast has been reported in mice and rats^3, 10. […] In contrast the 3i rat cells do contribute to chimaeras. They also express Rex1, Stella (Dppa3) and alkaline phosphatase, markers of ES cells and early epiblast that are absent in EpiSCs. Furthermore 3i rat cells can readily be propagated after dissociation into single cells whereas maintained cell-cell contact appears critical for EpiSCs. […]

Compound: Cc1c[nH]c(-c2cnc(NCCNc3ccc(C#N)cn3)nc2-c2ccc(Cl)cc2Cl)n1 [CHIR 99021]
- results as GSK3 inhibitor in culture of pluripotent cells [1]: Good results
- specificity [2]: specific for GSK3

Compound: CCN(CC)CCCCNc1ncc2cc(-c3cc(OC)cc(OC)c3)c(NC(=O)NC(C)(C)C)nc2n1 [PD173074]
- fold lower concentration at which fully effective as substitute for SU5402 ([1]; relative to SU5402): about 100 fold

Compound: NC(=O)c1ccc(-c2nc(-c3ccccn3)c(-c3ccc4c(c3)OCO4)[nH]2)cc1 [SB431452]
- maintenance / propagation of undifferentiated rat cells [3]: did not impede propagation

Compound: CHIR 98014
- results as GSK3 inhibitor in culture of pluripotent cells [1]: Good results
- specificity [2]: specific for GSK3
